Values quoted from earlier work, collected in patent publication US20030109508A1, “Methods for treating dry eye” (Alcon, Inc., priority 2001, published 2003).

Test system: human conjunctival epithelial cells
Settings: background statement, no data given

Q: With `CCCCC[C@H](O)/C=C/C=C\C/C=C\C/C=C\CCCC(=O)O` [15-HETE] as the compound, how does the “secretion of mucin-1 (MUC-1)” value read?
A: The value was “increase the secretion of mucin-1 (MUC-1)”.
